Laboratory results: the Kinase Knowledgebase extract (Sharma et al. 2016)

What follows are molecules tested against MAPK14 (human) (UniProt Q16539) (assay: Inhibition of MAPK14 Kinase Activity).
MAPK14 (human), sequence (Q16539 whole entry, looked up): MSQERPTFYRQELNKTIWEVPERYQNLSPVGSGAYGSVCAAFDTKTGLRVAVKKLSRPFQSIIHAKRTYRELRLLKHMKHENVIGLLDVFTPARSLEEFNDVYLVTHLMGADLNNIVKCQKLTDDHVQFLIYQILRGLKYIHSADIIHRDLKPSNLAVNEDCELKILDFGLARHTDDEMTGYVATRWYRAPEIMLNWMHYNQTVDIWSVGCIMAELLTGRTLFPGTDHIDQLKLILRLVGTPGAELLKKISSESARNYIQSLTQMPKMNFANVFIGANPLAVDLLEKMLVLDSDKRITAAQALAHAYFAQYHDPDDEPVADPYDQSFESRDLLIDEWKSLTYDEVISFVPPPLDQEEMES
For `Cc1cc(Nc2c(C(N)=O)sc3c2ccc(=O)n3C2CC2)ccc1F`, the IC50 was at most 1000 nM.
`N#Cc1sc2c(ccc(=O)n2CC2CC2)c1Nc1ccccc1` showed an IC50 of at most 1000 nM.
In the case of `CCOC(=O)c1sc2c(ccc(=O)n2-c2ccc(NS(C)(=O)=O)cc2)c1Nc1ccc(F)cc1F`, the IC50 is reported as at most 1000 nM.
`CCOC(=O)c1sc2c(ccc(=O)n2-c2ccccc2)c1Nc1ccccc1OC` was tested, and the IC50 was at most 1000 nM.
Molecule `N#Cc1sc2c(ccc(=O)n2-c2ccccc2)c1Nc1c(F)cccc1F` has an IC50 of at most 1000 nM.
Molecule `Cc1ccc(-n2c(=O)ccc3c(Nc4cccc(C)c4)c(C(N)=O)sc32)cc1` has an IC50 of at most 1000 nM.
For `CCOC(=O)c1sc2c(ccc(=O)n2-c2ccc(SC)cc2)c1Nc1ccccc1`, the IC50 was at most 1000 nM.
`Cc1cccc(Nc2c(C(N)=O)sc3c2ccc(=O)n3-c2ccccc2)c1` was tested, and the IC50 was at most 1000 nM.
Work on `NC(=O)c1sc2c(ccc(=O)n2-c2ccccc2)c1Nc1ccc(F)cc1F` yielded an IC50 of at most 1000 nM.
In the case of `CCN(CC)CCN(C)C(=O)c1sc2c(ccc(=O)n2-c2ccccc2)c1Nc1ccccc1`, the IC50 is reported as at most 1000 nM.
Molecule `Cc1cc(Nc2c(C(N)=O)sc3c2ccc(=O)n3CC2CC2)ccc1F` has an IC50 of at most 1000 nM.
For `O=C(NCCCn1ccnc1)c1sc2c(ccc(=O)n2-c2ccccc2)c1Nc1ccccc1`, the IC50 was at most 1000 nM.
For `Cc1c(Br)cccc1Nc1c(C#N)sc2c1ccc(=O)n2-c1ccccc1`, the IC50 was at most 1000 nM.
With `CCOC(=O)c1sc2c(ccc(=O)n2-c2ccccc2)c1Nc1cccnc1` the IC50 was at most 1000 nM.
`N#Cc1sc2c(ccc(=O)n2CC2CC2)c1Nc1ccc(F)c(Cl)c1` gave an IC50 of at most 1000 nM.
`CCOC(=O)c1sc2c(ccc(=O)n2CC2CC2)c1Nc1ccccc1` showed an IC50 of at most 1000 nM.
`Cc1ccc(Nc2c(C#N)sc3c2ccc(=O)n3CC2CC2)c(C)c1` was tested, and the IC50 was at most 1000 nM.
`CC(C)(CO)NC(=O)c1sc2c(ccc(=O)n2-c2ccccc2)c1Nc1ccccc1` was tested, and the IC50 was at most 1000 nM.
Work on `CCOC(=O)c1sc2c(ccc(=O)n2-c2ccccc2)c1Nc1ccccc1C#N` yielded an IC50 of at most 1000 nM.
For `CN(C)c1ccc(-n2c(=O)ccc3c(Nc4ccccc4)c(C(=O)N4CCCC4)sc32)cc1`, the IC50 was at most 1000 nM.
For `CCOC(=O)c1sc2c(ccc(=O)n2-c2ccccc2)c1Nc1cccc(C)c1C#N`, the IC50 was at most 1000 nM.
`Cc1cc(Nc2c(C#N)sc3c2ccc(=O)n3CC2CC2)ccc1F` showed an IC50 of at most 1000 nM.
`CCOC(=O)c1sc2c(ccc(=O)n2-c2ccc(SC)cc2)c1Nc1cccc(C)c1` gave an IC50 of at most 1000 nM.
`N#Cc1sc2c(ccc(=O)n2-c2ccc(OC[C@H](O)CO)cc2)c1Nc1ccc(F)cc1F` showed an IC50 of at most 1000 nM.
For `O=C(c1sc2c(ccc(=O)n2-c2ccccc2)c1Nc1ccccc1)N1CCCC1`, the IC50 was at most 1000 nM.
`CCOC(=O)c1sc2c(ccc(=O)n2-c2ccccc2)c1Nc1ccccc1Cl` gave an IC50 of at most 1000 nM.
Molecule `Cc1cc(Nc2c(C(N)=O)sc3c2ccc(=O)n3-c2ccsc2)ccc1F` has an IC50 of at most 1000 nM.
`CCOC(=O)c1sc2c(c(C)cc(=O)n2-c2ccccc2)c1Nc1ccccc1` was tested, and the IC50 was at most 1000 nM.
With `NC(=O)c1sc2c(ccc(=O)n2CC2CC2)c1Nc1ccc(F)c(Cl)c1` the IC50 was at most 1000 nM.
With `Cc1nccn1CCOc1ccc(-n2c(=O)ccc3c(Nc4ccc(F)cc4F)c(C(N)=O)sc32)cc1` the IC50 was at most 1000 nM.
